The target in this test is T1, AHK4^CD (6×His-AHK4^CD-GFP) (Arabidopsis thaliana, UniProt Q9C5U0).
T1 construct: extracellular CHASE domain, residues 126-395; N-terminal 6×His via linker, C-terminal GFP, tags kept; pRSF-Duet, E. coli Rosetta (BL21), Ni-NTA
T1 sequence (Q9C5U0 149-418): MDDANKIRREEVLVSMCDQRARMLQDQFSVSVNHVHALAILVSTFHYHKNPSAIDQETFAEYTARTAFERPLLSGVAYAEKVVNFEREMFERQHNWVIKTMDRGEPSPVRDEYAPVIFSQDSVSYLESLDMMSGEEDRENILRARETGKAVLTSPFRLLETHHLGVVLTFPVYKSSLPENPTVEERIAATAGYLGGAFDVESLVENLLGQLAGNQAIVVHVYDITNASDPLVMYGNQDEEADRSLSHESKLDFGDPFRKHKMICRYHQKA
Briefly: microscale thermophoresis (MST), GFP-tagged target. It is filed as binding.

Two compounds from article doi:10.1101/2025.08.05.668571v1, “Preliminary Study on the Mechanisms of Cytokinin and Its Receptor Binding Diversity” (biorxiv, 2025) can be followed below.

A word on the Kd: it is the concentration at which binding is half-saturated. Low readings indicate a tighter complex, high ones a looser complex. In turn, `c1ccc(CNc2ncnc3nc[nH]c23)cc1` [6-BA] yielded a Kd of 27.7 ± 20.7 nM.
Then `CC(C)=CCNc1ncnc2nc[nH]c12` [2iP], with 540 ± 262 nM.
